Source: patent US20060014643A1, “Combinations of aryloxyphenoxypropionates and safeners and their use for increasing weed control” (BAYER CROPSCIENCE GMBH, priority 2002, published 2006)

Experiments:
Type in all cases: in vivo
[1] = tested on: Alopecurus myosuroides; assay: Post-emergence weed control in winter wheat (field trial); details: visual scoring 112 days after treatment vs untreated, rate g a.i./ha: (A5) 37.3, (B1) 10, (A5)+(B1) 37.3 + 10, 300 l water/ha
Method: (§1) Winter wheat was grown outdoors on plots under natural outdoor conditions, and seeds of typical harmful plants were laid out. […] The effect of the composition was assessed 112 days after treatment by scoring visually in comparison with untreated controls.

[2] = tested on: Triticum aestivum (spring wheat); assay: Phytotoxicity (crop damage) to spring wheat (field trial); details: spring wheat at 3-5 leaves, visual scoring 4 weeks after treatment, rate g a.i./ha: (A1) 112, (A3) 1680, (B1) 28, mixtures 112 + 28 and 1680 + 28
Method: (§2) Spring wheat was grown outdoors on plots under natural outdoor conditions, and seeds of typical harmful plants were laid out. Treatment with a mixture of a (hetero)aryloxyphenoxypropionate herbicide and the safener mefenpyr-diethyl using standard formulations of the active ingredients at an application rate of 300 l water per hectare was carried out after the harmful plants had emerged and the spring wheat was in the growth stage between 3 and 5 leaves for the plants. The effect of the composition was assessed 4 weeks after treatment by scoring visually in comparison with untreated controls.

[3] = tested on: Setaria lutescens; assay: Post-emergence weed control in spring wheat (field trial); details: visual scoring 4 weeks after treatment vs untreated, rate g a.i./ha: (A1) 112, (A3) 1680, (B1) 28, mixtures 112 + 28 and 1680 + 28, 300 l water/ha
Method: as §2

[4] = tested on: Triticum aestivum (winter wheat); assay: Phytotoxicity (crop damage) to winter wheat (field trial); details: winter wheat at 3-5 leaves, visual scoring 112 days after treatment, rate g a.i./ha: (A5) 37.3, (B1) 10, (A5)+(B1) 37.3 + 10
Method: as §1

Row | SMILES | Weed control (%) of ALOMY [1] [%] | Phytotox (%) of TRZAS [2] [%] | Weed control (%) of SETLU [3] [%] | Phytotox (%) of TRZAW [4] [%]
1 | CCOC(=O)C1=NN(c2ccc(Cl)cc2Cl)C(C)(C(=O)OCC)C1 (stereo not shown) [(B1), ethyl 1-(2,4-dichlorophenyl)-5-(ethoxycarbonyl)-5-methyl-2-pyrazoline-3-carboxylate] | 0 | 0 | 0 | 0
2 | C#CCOC(=O)[C@@H](C)Oc1ccc(Oc2ncc(Cl)cc2F)cc1 [(A1), prop-2-ynyl (R)-2-[4-(5-chloro-3-fluoropyridin-2-yloxy)phenoxy]propionate] | – | 20 | 68 | –
3 | CCOC(=O)[C@@H](C)Oc1ccc(Oc2nc3ccc(Cl)cc3o2)cc1 [(A5), ethyl (R)-2-[4-(6-chloro-1,3-benzoxazol-2-yloxy)phenoxy]propionate] | 69 | – | – | 10
4 | CC(Oc1ccc(Oc2ccc(Cl)cc2Cl)cc1)C(=O)O (racemic) [(A3), (RS)-2-[4-(2,4-dichlorophenoxy)phenoxy]propionic acid] | – | 12 | 45 | –
